System: 171881-019-R-J1-PDC multicell spheroid viability
Experiment: Anticancer human tumor 171881-019-R-J1-PDC patient-derived invasive breast carcinoma cell line growth inhibition [IpAb]
Settings: for IC50: curve of first compound; for viability, T/C: stronger effect = lower value
Description: Combinatorial screen of targeted agents with ipatasertib and abemaciclib in multi-cell type tumor spheroids
A high-throughput screen of multi-cell type tumor spheroids was designed to identify active combinations of targeted small molecules and ipatasertib or abemaciclib. Complex spheroids include a stromal component modeled by human endothelial cells (HUVEC) and fibroblasts modeled by human mesenchymal stem cells (MSCs). The concentration ranges selected for each drug and investigational agent were based upon clinically achievable concentrations if the clinical Cmax of the agent was known.
Compounds. The drugs and investigational agents: ipatasertib (NSC767898), abemaciclib(NSC768073), selumetinib (NSC741078), trametinib (758246), adavosertib (NSC754352), everolimus (NSC733504), sapanisertib (NSC764658), vemurafenib (NSC761431), venetoclax (NSC766270), copanlisib (NSC809693), apelisib (NSC765974), palbociblib (NSC758247), vemurafenib (NSC761431), dabrafenib (NSC764134), ravoxertinib (NSC781343), BMS-387032 (NSC767048), sotorasib (NSC818433), talazoparib (NSC767125) and afursertib (NSC778305), were obtained from the National Cancer Institute (NCI) Developmental Therapeutics Program Chemical Repository. The FDA-approved anticancer drug set is available from the NCI Developmental Therapeutics Program. […] The stock solutions were prepared in dimethyl sulfoxide (DMSO, Sigma-Aldrich, St. Louis, MO, cat. D2650) at 800-fold the tested concentration and stored at -70 degrees C prior to their use. All drugs and investigational agents were tested over a range starting from a high concentration at or near the clinical Cmax and decreasing in half-log increments. If the clinical Cmax for an agent had not been determined, the highest concentration tested was 10 microM.
NCI60 Cell Culture. NCI60 cell lines were obtained from the NCI Developmental Therapeutics Program Tumor Repository. For each lot of cells, the Repository performed Applied Biosystems AmpFLSTR Identifiler testing with PCR amplification to confirm consistency with the published Identifier STR profile for each cell line. Cells were kept in continuous culture for no more than 20 passages. The optimal seeding densities for each of the cell lines at each time point assessed were determined prior to performing the concentration response studies. Briefly, the NCI60 human tumor lines were grown as monolayers in RPMI 1640 medium supplemented with 10% FBS and 2 mmol/L L-glutamine.
An additional 9 lines were from the NCI60 cell line panel including MDA-MB-231 breast carcinoma, MDA-MB-468 breast carcinoma, MCF7 breast carcinoma, Hs578T breast carcinoma, MALME-3M melanoma, SK-MEL-2 melanoma, SK-OV-3 ovarian carcinoma, DU-145 prostate carcinoma, PC-3 prostate carcinoma, all cell lines along with major genetic alterations are listed on Table 2. Pooled donor human umbilical vein endothelial cells (HUVEC, Lonza, cat. CC-2519) and human mesenchymal stem cells (hMSC, Lonza, cat. PT-2501) were purchased from Lonza (Walkersville, MD).
PDMR cell lines were grown in complete medium (DC medium): Dulbecco's modified Eagle's medium (DMEM)/F12 supplemented with 5% fetal bovine serum (FBS), 2 mM L-glutamine, 100 U/mL penicillin and 100 µg/ml streptomycin, 0.4 µg/ml hydrocortisone, 10 ng/ml epidermal growth factor (EGF) recombinant human protein, 24 µg/mL adenine, and 0.1 mg/mL primocin. During culture from frozen stock vials, PDMR cells were cultured in the same medium containing 10 µM Y-27632 (see Table 3). The PDCs were cultured in complete DMEM/F12 media without 10 microM Y-27632 dihydrochloride for at least two passages prior to the screen. The pooled donor HUVEC and hMSC were cultured in endothelial cell growth medium 2 (PromoCell, Heidelberg, Germany, cat. C-22011) and mesenchymal stem cell growth medium 2 (PromoCell, cat. C-28009), respectively. For all experiments, HUVEC and hMSC were used at passages </=5.
[…]

[1] = second compound 0.1 µM, first compound 0.0316 µM
[2] = second compound 0.1 µM, first compound 0.1 µM
[3] = second compound 0.1 µM, first compound 0.316 µM
[4] = second compound 0.1 µM, first compound 1 µM
[5] = second compound 0.316 µM, first compound 0.0316 µM
[6] = second compound 0.316 µM, first compound 0.1 µM
[7] = second compound 0.316 µM, first compound 0.316 µM
[8] = second compound 0.316 µM, first compound 1 µM
[9] = second compound 1 µM, first compound 0.0316 µM
[10] = second compound 1 µM, first compound 0.1 µM
[11] = second compound 1 µM, first compound 0.316 µM
[12] = second compound 1 µM, first compound 1 µM
[13] = second compound 3.16 µM, first compound 0.0316 µM
[14] = second compound 3.16 µM, first compound 0.1 µM
[15] = second compound 3.16 µM, first compound 0.316 µM
[16] = second compound 3.16 µM, first compound 1 µM
[17] = second compound 10 µM, first compound 0.0316 µM
[18] = second compound 10 µM, first compound 0.1 µM
[19] = second compound 10 µM, first compound 0.316 µM
[20] = second compound 10 µM, first compound 1 µM
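Further: spheroids exposed to the agents for seven days before readout.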

SMILES	IC50 (second compound 0.1 µM) [nM]	IC50 (second compound 0.316 µM) [nM]	IC50 (second compound 1 µM) [nM]	IC50 (second compound 3.16 µM) [nM]	IC50 (second compound 10 µM) [nM]	viability, T/C [1] [%]	viability, T/C [2] [%]	viability, T/C [3] [%]	viability, T/C [4] [%]	viability, T/C [5] [%]	viability, T/C [6] [%]	viability, T/C [7] [%]	viability, T/C [8] [%]	viability, T/C [9] [%]	viability, T/C [10] [%]	viability, T/C [11] [%]	viability, T/C [12] [%]	viability, T/C [13] [%]	viability, T/C [14] [%]	viability, T/C [15] [%]	other results
COc1c(OCCCN2CCOCC2)ccc2c3n(c(=NC(=O)c4cnc(N)nc4)nc12)CCN3 + CC(C)NCC(C(=O)N1CCN(c2ncnc3c2C(C)CC3O)CC1)c1ccc(Cl)cc1	16.4	5.9	< 3.16	< 3.16	< 3.16	25.8	3.96	1.09	1.15	16.9	3.36	0.91	0.95	8.13	2.24	0.79	1.24	3.83	1.68	0.83	viability, T/C (second compound 0.1 µM, first compound 0.00316 µM): 94.5%; viability, T/C (second compound 0.1 µM, first compound 0.01 µM): 68.5%; viability, T/C (second compound 0.316 µM, first compound 0.00316 µM): 61.5%; viability, T/C (second compound 0.316 µM, first compound 0.01 µM): 40%; viability, T/C (second compound 1 µM, first compound 0.00316 µM): 25.2%; viability, T/C (second compound 1 µM, first compound 0.01 µM): 15.6%; viability, T/C (second compound 3.16 µM, first compound 0.00316 µM): 9.51%; viability, T/C (second compound 3.16 µM, first compound 0.01 µM): 6.39%; viability, T/C [16]: 0.67%; viability, T/C (second compound 10 µM, first compound 0.00316 µM): 5.07%; viability, T/C (second compound 10 µM, first compound 0.01 µM): 3.81%; viability, T/C [17]: 2.45%; viability, T/C [18]: 1.59%; viability, T/C [19]: 0.62%; viability, T/C [20]: 0.82%
Cc1nc(NC(=O)N2CCCC2C(N)=O)sc1-c1ccnc(C(C)(C)C(F)(F)F)c1 (stereo not given) + CC(C)NCC(C(=O)N1CCN(c2ncnc3c2C(C)CC3O)CC1)c1ccc(Cl)cc1	651	294	< 31.6	< 31.6	< 31.6	125	108	68.4	38.1	71.5	58.9	52.8	18.8	24.8	24.1	21.3	13.5	10.7	7.22	7.33	viability, T/C (second compound 0.1 µM, first compound 3.16 µM): 15.5%; viability, T/C (second compound 0.1 µM, first compound 10 µM): 1.41%; viability, T/C (second compound 0.316 µM, first compound 3.16 µM): 10.7%; viability, T/C (second compound 0.316 µM, first compound 10 µM): 1.29%; viability, T/C (second compound 1 µM, first compound 3.16 µM): 4.39%; viability, T/C (second compound 1 µM, first compound 10 µM): 0.88%; viability, T/C [16]: 5.54%; viability, T/C (second compound 3.16 µM, first compound 3.16 µM): 3.24%; viability, T/C (second compound 3.16 µM, first compound 10 µM): 0.74%; viability, T/C [17]: 5.48%; viability, T/C [18]: 4.17%; viability, T/C [19]: 4.3%; viability, T/C [20]: 2.72%; viability, T/C (second compound 10 µM, first compound 3.16 µM): 1.77%; viability, T/C (second compound 10 µM, first compound 10 µM): 0.6%

— PubChem BioAssay AID2060342 (Molecular Pharmacology Branch, DTP, NCI, 2025)
